# In patent US20030118553A1, “Vector constructs for gene-therapy mediated radionuclide therapy of undifferentiated and medullary thyroid carcinomas and non-thyroidal tumours and metastases mediated thereof” (priority 2000, published 2003):
# Where two headings read alike, the source gives them in different places.
# Key:
# [1] = tested on: tumor cells of a thyroid carcinoma cell line (K1) transfected with hNIS
# Method: After a tumor growth for 3 weeks scintigraphic pictures were taken ventrally by means of scintiscanning (gamma camera ZLC370, Siemens) 3 and 24 h following the injection of 2 MBq I-123, 10 MBq Tc-99m-pertechnetate and 0.4 MBq At-211 (RVL=right-ventral-left).
# The cDNAs of the therapeutic genes are amplified from human thyreocyte mRNA after reverse transcription by subsequent PCR with gene-specific primers, and the fragments thus obtained are subcloned in a cloning vector (e.g., pCRblunt, Invitrogen) in E. coli (K12 derivative). For this purpose, overlapping cDNA segments of the single genes are used, the fragments allowing the generation of full-length cDNAs due to their common restriction enzyme cleavage sites. The cDNAs are cloned into a vector for constitutive expression in mammalian cells (e.g., in pCIneo under control of the CMV promoter, Promega). The expression vectors with integrated cDNA (FIG. 7A, example) are used for transient transfection of different tumor cell lines (Fugen6, Roche) and for the generation of stably transfected cell lines by antibiotic selection (e.g., G418 for pCIneo). Radionuclide uptake measurements ([I-125], [At-211], [Tc-99m], [Re-188]) with cell cultures (FIGS. 5 and 6) are performed according to the method of Weiss et al. 1984. To establish an animal model stably transfected tumor cell lines and the corresponding control cells, respectively, are subcutaneously injected into nude NMRI mice (nu/nu). After tumor growth in the course of 3-4 weeks and application of different radionuclides (i. a., [I-123], [At-211], [Tc-99m]) sequential scintiscans are taken with a gamma camera and organ distribution over region of interest (ROI) analyses determined (FIG. 4).
# [2] = tested on: tumor cell lines stably transfected with the NIS gene (K1, B-CPAP, 8505-C, SW480, DBTRG); test: In vitro radionuclide uptake in tumor cell lines stably transfected with the NIS gene; type: cell-based; conditions: for radionuclide uptake in control cells: corresponding control cells, not NIS-transfected; for radionuclide uptake in tumor cell lines transfected with NIS: stably transfected K1, B-CPAP, 8505-C, SW480, DBTRG
# Source text: FIG. 5A depicts in vitro results of the radionuclide uptake of I-125, Tc-99m-pertechnetate, and At-211 in tumor cell lines stably transfected with the NIS gene as compared to the corresponding control cells: K1 papillary thyroid carcinoma ECACC #92030501, B-CPAP papillary thyroid carcinoma DSMZ #ACC273, 8505-C anaplastic thyroid carcinoma DSMZ #ACC219, SW480 colon carcinoma DSMZ #ACC313, DBTRG glioblastoma DSMZ #ACC359.
# [3] = tested on: anaplastic thyroid cells transfected with NIS cDNA; conditions: NIS-transfected tumor cells implanted into rats; cited from earlier work
# [4] = tested on: transiently transfected tumor cell lines; test: I-125 uptake in transiently NIS-transfected tumor cell lines; type: cell-based; conditions: also follicular thyroid carcinoma, HepG2, LN-Cap, A498, SK-Mel30, CCF-STTG1, TT
# Source text: In FIG. 5B the uptake of I-125 is additionally shown depending on a perchlorate blockage in transiently transfected tumor cell lines. […] The differences in the iodide uptake rates in different cell lines transfected with NIS are caused by the variable transfection efficiency of the distinct cell lines with the method used.
# [5] = tested on: stably transfected tumor cell lines (K1-NIS, SW480-NIS); test: At-211 transport in vitro: Na+ dependency and perchlorate inhibition; type: cell-based
# Source text: FIG. 6A depicts the dependency upon Na^+ of the At-211 transport in vitro in stably transfected tumor cell lines (K1-NIS, SW480-NIS), wherein NaCl has been iso-osmotically replaced by choline chloride.
# [6] = scintigraphically, K1-NIS tumor, NMRI nude mouse, compared to muscle tissue
# [7] = scintiscans 3 and 24 h after injection, K1-wt control tumor not shown
Compound,"higher uptake in the NIS tumor as compared to muscle tissue [1, 6] [fold]","enrichment of the tracer in the tumor transfected with NIS [1, 7]",radionuclide uptake in control cells [2],radionuclide uptake in tumor cell lines transfected with NIS [2],further results
[O]=[99Tc](=[O])(=[O])[O-] [Tc-99m-pertechnetate],15,significant enrichment,no uptake,highly significant uptake,–
[131IH] [I-131],–,–,–,–,maximum level after [3]: 90 min
[125IH] [I-125],–,–,no uptake,highly significant uptake,iodide uptake in transiently transfected tumor cell lines [4]: significant iodide uptake
[123IH] [I-123],60,significant enrichment,–,–,–
[O-][Cl+3]([O-])([O-])O [perchlorate],–,–,–,–,inhibition of the astate transport ([5]; small perchlorate concentrations): clear inhibition
[At] [At-211],–,–,no uptake,highly significant uptake,"enrichment of the tracer in the tumor transfected with NIS ([1]; mouse, in vivo): significant enrichment; higher uptake in the NIS tumor as compared to muscle tissue ([1]; mouse, in vivo): 10 fold; dependency upon Na+ of the transport ([5]; NaCl iso-osmotically replaced by choline chloride, K1-NIS, SW480-NIS): clear-cut dependency upon Na^+"
